Here are results for 3 compounds from patent US20020034545A1, “Particulate composition of eletriptan” (priority 2000, published 2002).

≈ marks a conversion by molar mass, not a printed value. Where a name gives a salt, the structure may show the parent alone.

The nature of this data set: physchem. In kind it is physicochemical. An excerpt:
Several salts of eletriptan have been identified that have properties which make them particularly suitable for development as drug substances. […] It is therefore desirable to provide a controlled release formulation capable of achieving a sigmoidal pattern of drug release and suitable for oral administration that is equally useful for the delivery of any form of eletriptan, regardless of its solubility.

Consider “eletriptan hemisulphate [hemisulphate salt]”, for which the aqueous solubility is over 200000 µg/mL.
On to `CN1CCC[C@@H]1Cc1c[nH]c2ccc(CCS(=O)(=O)c3ccccc3)cc12` [hydrobromide salt, eletriptan hydrobromide], for which, where the note is “20 °C, water, aqueous solubility”, the solubility came out at 4000 µg/mL.
As to `CN1CCC[C@@H]1Cc1c[nH]c2ccc(CCS(=O)(=O)c3ccccc3)cc12` [eletriptan free base, 3-{[1-methylpyrrolidin-2(R)-yl]methyl}-5-(2-phenylsulfonylethyl)-1H-indole], the aqueous solubility came out at 2500 µg/mL (≈ 6.54 mM).
